Like-named read-outs stand apart in the source and are kept apart here.
How the values were obtained:
[1] = tested on: GYKI 20039 induced tremor; experiment: Tremor test in mice (GYKI 20039 induced tremor); format: in vivo; conditions: for ED50: Mus musculus, ip; for Tremor inhibitory effect ED50: i.p.
Excerpt: Tremor can be induced by administration of GYKI 20039 (3-(2,6-dichlorophenyl)-2-iminothiazolidine). The method was published by Kocsis P., Tarnawa I., Kovács Gy., Szombathelyi Zs., Farkas S., 2002; Acta Pharmaceut. Hung., 72:49-61; U.S. Pat. No. 5,340,823, 1994, U.S. Pat. No. 5,198,446, JP 1992270293, EP 0468825, 1990 HU 4647.
The aim of our experiments was to decide if the effect of tolperisone is influenced by co-administration of dextromethorphan.

[2] = tested on: monosynaptic reflex, hemisected spinal cord preparation; experiment: Spinal reflex inhibitory action in vitro, hemisected spinal cord preparation
Protocol: Spinal reflex Inhibitory Action, In Vitro
Our experiments were performed according to the methods described by Otsuka and Konishi (Otsuka and Konishi, Nature 1974. 252, 733.), with slight modifications (Kocsis et al., Brain Res. Bull. 2003. 60, 81.).
This experiment is suitable for testing central muscle relaxant activity. In the tremor test the efficacy of drugs may be considerably influenced by metabolic and pharmacokinetic factors, therefore we used an in vitro model to investigate the pharmacodynamic interaction between the components of the combination without the interference of the above factors.
We determined the dose-response curve for monosynaptic reflex inhibition of dextromethorphan alone, and in the presence of tolperisone or eperisone. In the control study we measured the effect of dextromethorphan at 0.25; 0.5 and 1 μM. In other experiments we added tolperisone (25 μM) or eperisone (20 μM) to the perfusion solution, and taking the equilibrium responses in these conditions as references, we measured the reflex inhibitory action of dextromethorphan. […] The potentiating effect of eperisone has been even more expressed (see Table 4.).

[3] = tested on: neuropathic pain (allodynia); experiment: Rat allodynia model (Bennet-Xie model, von Frey filaments); format: in vivo; conditions: for analgesic effect in the allodynia model (in words): i.p., dextromethorphan 10 mg/kg alone or in combined treatment with tolperisone
Excerpt: In our experiments, we applied the Bennet-Xie model (G. J. Bennett, Y.-K. Xie, Pain 33: 87-107; 1988) to test the effect of the combination against neuropathic pain. We measured the threshold of the pain reaction with von Frey filaments calibrated to 0.9, 1.2, 1.8, 3.6, 5.4, 6.9, 8.9, 12 and 20 g.

pain = conditions: cited from earlier work
[4] = in humans; cited from earlier work
[5] = 15-minute pre-treatment, dose causing 50% tremor inhibition
[6] = 15-minute pre-treatment, dose causing 50% tremor inhibition, read-out: Tremor inhibitory effect ED50

**Q.** Which “Inhibition of tremor (control %) Mean” value ([1]; 10 mg/kg dextromethorphan i.p.) does the source give for `COc1ccc2c(c1)[C@]13CCCC[C@@H]1[C@H](C2)N(C)CC3` (racemic) [Dextromethorphan, (+/−)-3-methoxi-17-methylmorphinan] here?
**A.** 8 control %

**Q.** And the “tremor inhibition (in words)” value ([1]; 10 mg/kg dextromethorphan, 10-minute pre-treatment)?
**A.** no significant tremor inhibition

**Q.** What about the ED50 ([1]; read-out: ED50 of inhibition of the tremor) of the same compound?
**A.** 24.4 mg/kg

**Q.** And the inhibition at 0.25 µM ([2]; dextromethorphan 0.25 μM alone)?
**A.** 20.7%

**Q.** And the inhibition at 0.5 µM ([2]; dextromethorphan 0.5 μM alone)?
**A.** 36.6%

**Q.** What about the inhibition at 1 µM ([2]; dextromethorphan 1 μM alone) of the same compound?
**A.** 40.9%

**Q.** What about the IC50 ([2]; dextromethorphan alone, read-out: IC50 of dextromethorphan, reflex inhibitory activity) of the same compound?
**A.** 1.56 µM

**Q.** And the “Threshold value (g) mean” value ([3]; dextromethorphan 10 mg/kg i.p., time 0 min)?
**A.** 3.26 g

**Q.** And the “Threshold value (g) mean” value ([3]; dextromethorphan 10 mg/kg i.p., time 10 min)?
**A.** 7.57 g

**Q.** What about the “Threshold value (g) mean” value ([3]; dextromethorphan 10 mg/kg i.p., time 20 min) of the same compound?
**A.** 6.03 g

**Q.** And the “analgesic effect in the allodynia model (in words)” value [3]?
**A.** practically ineffective

**Q.** What about the “effect in the treatment of chronic pain” value (pain; clinical trials, Ben-Abraham and Weinbroum 2000) of the same compound?
**A.** ineffective

**Q.** And the “effect in an experimental human pain model” value (pain; clinically acceptable dose range, Kaippula et al. 1995)?
**A.** no effect

**Q.** And the “relieving acute ischemic pain” value (pain; in humans, Plesan et al. 2000)?
**A.** without effect

**Q.** With `Cc1ccccc1-n1c(CF)nc2ccc(N)cc2c1=O` [Afloqualon] as the compound, how does the “Tremor inhibitory effect ED50” value [1, 5] read?
**A.** 11.1 mg/kg

**Q.** Which ED50 [1, 6] does the source give for `NCC(CC(=O)O)c1ccc(Cl)cc1` (stereo not shown) [Baclofen] here?
**A.** 9.1 mg/kg

**Q.** For `CCc1ccc(C(=O)C(C)CN2CCCCC2)cc1` (stereo not shown) [Eperisone, 2-mehyl-1-(4-ethylphenyl)-3-(1-piperidinyl)-1-propanone], which “Tremor inhibitory effect ED50” value [1, 5] is on record?
**A.** 51.8 mg/kg

**Q.** Which ED50 [1, 6] does the source give for `CC12CC3CC(C)(C1)CC(N)(C3)C2` [Memantine] here?
**A.** 20.5 mg/kg

**Q.** Which ED50 [1, 6] does the source give for `Cc1ccccc1OCC(O)CO` (stereo not shown) [Mephenesin] here?
**A.** 81.5 mg/kg

**Q.** For `Clc1ccc2nsnc2c1NC1=NCCN1` [Tizanidine], which ED50 [1, 6] is on record?
**A.** 0.73 mg/kg

**Q.** Which “Inhibition of tremor (control %) Mean” value ([1]; 40 mg/kg tolperisone i.p.) does the source give for `Cc1ccc(C(=O)C(C)CN2CCCCC2)cc1` (stereo not shown) [Tolperisone, 2-mehyl-1-(4-methylphenyl)-3-(1-piperidinyl)-1-propanone] here?
**A.** 27 control %

**Q.** And the “Inhibition of tremor (control %) Mean” value ([1]; 60 mg/kg tolperisone i.p.)?
**A.** 48 control %

**Q.** What about the “Tremor inhibitory effect ED50” value [1, 5] of the same compound?
**A.** 60.0 mg/kg

**Q.** And the “Inhibition of tremor (%)” value ([1]; tolperisone 60 mg/kg i.p., dextromethorphan 0 mg/kg)?
**A.** 48.3%

**Q.** And the “ED50 for the tremor inhibitory activity” value ([1]; tolperisone alone)?
**A.** 55.0 ± 7.2 mg/kg

**Q.** What about the “Reflex Inhibition (%)” value ([2]; tolperisone 25 μM alone) of the same compound?
**A.** 26.97%

**Q.** What about the “Reflex Inhibition (%)” value ([2]; tolperisone 50 μM alone) of the same compound?
**A.** 48.61%

**Q.** What about the “Reflex Inhibition (%)” value ([2]; tolperisone 100 μM alone) of the same compound?
**A.** 70.30%

**Q.** What about the IC50 ([2]; tolperisone alone, sigmoid fitting, read-out: IC50 of tolperisone, reflex inhibitory activity) of the same compound?
**A.** 52.4 µM

**Q.** And the “analgesic effect in the allodynia model (in words)” value [3]?
**A.** significant analgesic effect

**Q.** And the “Threshold value (g) mean” value ([3]; tolperisone 20 mg/kg i.p., time 0 min)?
**A.** 3.6 g

**Q.** And the “Threshold value (g) mean” value ([3]; tolperisone 20 mg/kg i.p., time 10 min)?
**A.** 14.89 g

**Q.** What about the “Threshold value (g) mean” value ([3]; tolperisone 20 mg/kg i.p., time 20 min) of the same compound?
**A.** 10.31 g

**Q.** What about the oral bioavailability [4] of the same compound?
**A.** 16-20%

Source: patent publication US20060199841A1, “Pharmaceutical combination for the treatment of spasticity and/or pain” (priority 2003, published 2006)
